One may read the LD50 as the dose at which mortality reaches 50%. Low values mean a more toxic substance, high ones a less toxic substance.

A short description of data set [1]: Percutaneous absorption of pindolol in rats, serum concentration by HPLC. The data set is classed as in vivo, Wistar-strain male rats. Particulars: for Activity (serum concentration of pindolol): relative to Control (Vehicle) = 1.0 of the same series in Table 5. The method, then:
There were provided groups each consisting of four Wistar-strain male rats each weighing 200 to 250 g and having their dorsal skin hair shorn with an electric shaver.
Each of the test solutions (pindolol-containing preparations) was applied to the shorn dorsal skin of test rats of one of the groups in an amount of 150 μl/2.5×2.5 cm^2 and then sealed up. Three hours after the application of the test solution, the blood of the test rats was collected and measured for serum concentration of pindolol by HPLC.
For comparison, the above procedure was followed except that there was used a control solution which was the same as said test solution except for non-use of any compounds of this invention, and also followed using a comparative test solution which was the same as the test solution except for the substitution of a comparative compound for the compound of this invention.

Data set [2] can be described thus: Skin penetration of 5-FU from test solution, diffusion cell method. The class given is in vitro ADME, female hairless mice.
Another data set can be described thus: in vivo. Particulars: rat.
For another data set, the system named is glucose level in blood. Nature of the data set: Rectal absorption of insulin from suppository: glucose level in blood of rabbits. The class given is in vivo, male rabbits. The method, then:
There were prepared the following suppositories for use in normal, control and test groups, respectively, each group consisting of five male rabbits weighing 2.5 to 3.5 kg each.
The three suppositories were into the rectums of the rabbit groups in an amount of 0.3 g suppository/kg, respectively. Thereafter, blood was collected from the rabbits through their ear vein three times with the lapse of time to measure the three collected blood samples for glucose level in blood by a glucose oxidase method. […] The results are indicated in terms of a change in glucose level in blood with respect to the glucose level in blood prior to the administration of the suppositories.

For `CN1CCCC1=O` [1-methyl-2-pyrolidone, 1-methyl-2-pyrrolidone, reference compound], in data set [1], the “Activity (serum concentration of pindolol)” value came to 1.9. Further, the “Cumulative amount of 5-FU permeated, 24 hrs later” value in data set [2] (3.0 wt.% test compound, 5-FU 1.8 wt.% in ethanol/water, 24 hrs) amounted to 83 ± 15 µM. Moreover, the “Cumulative amount of 5-FU permeated, 48 hrs later” value in data set [2] (3.0 wt.% test compound, 5-FU 1.8 wt.% in ethanol/water, 48 hrs) turned out to be 192 ± 20 µM. The “Activity (5-FU permeation)” value in data set [2] (relative to Control (Vehicle) = 1.0) stood at 0.9. In addition, the values for the LD50 at 168 h in the data set “in vivo” (po) and in the data set “in vivo” (sc) were 1000 to 2000 mg/kg and 2000 to 5000 mg/kg, respectively.

As to `C[S+](C)[O-]` [DMSO, dimethylsulfoxide, reference compound], the “Serum concentration of pindolol” value in data set [1] (rat, in vivo, 180 min) turned out to be 12.0 ± 4.2 ng/mL. In data set [1], the “Activity (serum concentration of pindolol)” value was determined as 1.0.

As for `CCCCCCCCCSCCN1CCCC1=O` [Example 1, 1-[2-(n-nonylthio)ethyl] azacyclopentane-2-one], the “Activity (serum concentration of pindolol)” value in data set [1] is 30.0.

On to `CCCCCSCCCCCCN1CCCCCC1=O` [Example 2, 1-[6-(n-pentylthio)hexyl] azacycloheptane-2-one], for which the “Activity (serum concentration of pindolol)” value in data set [1] is 12.7.

For the compound `CCCCCCCCOCCCN1CCCCCC1=O` [Example 4, 1-[3-(n-octyloxy)propyl] azacycloheptane-2-one], in data set [1], the “Activity (serum concentration of pindolol)” value amounted to 31.5.

On to `CCCCCCCCCCSCCCN1CCCC1=O` [Example 16], for which, in data set [1], the “Activity (serum concentration of pindolol)” value is recorded as 32.0.

`CCCCCCCSCCCCCN1CCCC1=O` [Example 20]: in data set [1], the “Activity (serum concentration of pindolol)” value was 40.6.

In the case of `CCCCCCCSCCCN1CCCCCC1=O` [Example 29], the “Activity (serum concentration of pindolol)” value in data set [1] was found to be 14.8.

Consider `CCCCCCCCSCCCN1CCCCCC1=O` [Example 30], for which, in data set [1], the “Activity (serum concentration of pindolol)” value is given as 12.7.

As to `CCCCCCCCCSCCCN1CCCCCC1=O` [Example 31], the “Activity (serum concentration of pindolol)” value in data set [1] was determined as 27.5.

As to `CCCCCSCCCCN1CCCCCC1=O` [Example 35], the “Activity (serum concentration of pindolol)” value in data set [1] stood at 8.8.

With `CCCCCCSCCCCN1CCCCCC1=O` [Example 36], the “Activity (serum concentration of pindolol)” value in data set [1] came out at 19.6.

For the compound `CCCCCCCCSCCCCN1CCCCCC1=O` [Example 38], the “Activity (serum concentration of pindolol)” value in data set [1] came to 12.0.

Turning to `CCCCCCCCCSCCCCN1CCCCCC1=O` [Example 39], the “Activity (serum concentration of pindolol)” value in data set [1] worked out at 18.0.

For the compound `CCCCCCCSCCCCCN1CCCCCC1=O` [Example 43], the “Activity (serum concentration of pindolol)” value in data set [1] turned out to be 16.2.

Regarding `CCCCCCSCCCCCCN1CCCCCC1=O` [Example 48], in data set [1], the “Activity (serum concentration of pindolol)” value was determined as 14.9.

`CCCCSCCCCCCCN1CCCCCC1=O` [Example 49]: the “Activity (serum concentration of pindolol)” value in data set [1] stood at 23.2.

In the case of `CCCSCCCCCCCCN1CCCCCC1=O` [Example 50], the “Activity (serum concentration of pindolol)” value in data set [1] is reported as 6.6.

With `CCCCCCCOCCCCCN1CCCC1=O` [Example 66], the “Activity (serum concentration of pindolol)” value in data set [1] is given as 30.2.

Turning to `CCCCCOCCCCCCN1CCCC1=O` [Example 67], in data set [1], the “Activity (serum concentration of pindolol)” value is reported as 22.8.

Regarding `CCCCCCCCCCOCCCN1CCCCCC1=O` [Example 72], the “Activity (serum concentration of pindolol)” value in data set [1] is 27.2.

As for `CCCCCCCCOCCCCN1CCCCCC1=O` [Example 74], the “Activity (serum concentration of pindolol)” value in data set [1] is recorded as 28.9.

`CCCCCCOCCCCCN1CCCCCC1=O` [Example 76]: in data set [1], the “Activity (serum concentration of pindolol)” value worked out at 8.3.

Turning to `CCCCCCOCCCCCCN1CCCCCC1=O` [Example 80], the “Activity (serum concentration of pindolol)” value in data set [1] is recorded as 26.1.

On to “Insulin: Insulin (Bovine, International Unit); control group (only insulin used)”, for which the “effects on glucose level in blood (in words)” value with glucose level in blood (compared with the normal group) is listed as “exhibited no effects on glucose level in blood”. Also, the “Changes of glucose level to the initial, 0.5 hr” value in the data set with glucose level in blood (insulin suppository 0.3 g/kg rectal, 3% promoter where used, 0.5 hr) was -1 mg/dL. Besides, the “Changes of glucose level to the initial, 1 hr” value with glucose level in blood (insulin suppository 0.3 g/kg rectal, 3% promoter where used, 1 hr) is reported as “+3 mg/dl”. For the same compound, the “Changes of glucose level to the initial, 3 hrs” value with glucose level in blood (insulin suppository 0.3 g/kg rectal, 3% promoter where used, 3 hrs) was “+1 mg/dl”.

These data come from patent publication US4882359A, “Azacycloalkane derivatives, absorption promoters containing the derivatives as the effective ingredient and external preparations containing the absorption promoters” (priority 1986, dated 1989).
